Assay results reported in PMC10931776, “Modes of Interactions with DNA/HSA Biomolecules and Comparative Cytotoxic Studies of Newly Synthesized Mononuclear Zinc(II) and Heteronuclear Platinum(II)/Zinc(II) Complexes toward Colorectal Cancer Cells” (International Journal of Molecular Sciences, 2024).
Where two headings read alike, the source gives them in different places.

Columns and labels:
[1] = test system: human colorectal carcinoma (HCT116); assay: MTT cytotoxicity assay, HCT116; format: cell-based; settings: 48 h; for IC50: read-out: IC50 ± SEM, HCT 116
Method: (§1) The in vitro cytotoxicity of newly synthesized mono- and heteronuclear platinum(II)/and zinc(II) complexes, featuring a 4,4′,4″-tri-tert-butyl-2,2′:6′,2″-terpyridine ligand (designated as C1–C5), was assessed using MTT assay procedures. This evaluation targeted various cell lines: mouse colorectal carcinoma (CT26), human colorectal carcinoma (HCT116 and SW480), and non-cancerous mouse mesenchymal stem cells (mMSC). These cell lines were exposed to synthesized complexes for 48 h, with concentrations ranging from 1.17 to 150 μM.
(§2) In our study, various cell lines were cultured, including mouse colorectal carcinoma (CT26), human colorectal carcinoma (HCT116 and SW480) obtained from ATCC, USA, and mouse mesenchymal stem cells (mMSC, Gibco), New York, NY, USA). These cell lines were consistently maintained in complete Dulbecco’s Modified Eagle Medium (DMEM) supplemented with 10% fetal bovine serum (FBS) (Sigma Aldrich, St. Louis, MO, USA), 100 IU/mL penicillin, and 100 μg/mL streptomycin antibiotics (Invitrogen, Carlsbad, CA, USA). The cultures were incubated at 37 °C in a humidified atmosphere of 5% carbon dioxide (CO2). […] The viability and count of the cells were determined using Trypan blue staining, ensuring the accuracy and reliability of the experimental outcomes.
(§3) The cytotoxic effects of five newly synthesized complexes, alongside cisplatin, were assessed through the MTT assay method, in line with previously established protocols. During the exponential growth phase, cells were collected from culture flasks, counted, and then seeded in 96-well culture plates at a density of 5·10^3 cells per well. Subsequent treatment involved exposing these cells to varying concentrations of the newly synthesized complexes and cisplatin (ranging from 1.17 to 150 μM) for a duration of 48 h, with fresh complete medium serving as the control. The results were quantified relative to the control (untreated cells), providing a comparative measure of cytotoxicity. Additionally, IC50 values, representing the concentration required to inhibit 50% of the cell viability, were calculated using Microsoft Office Excel 2010. Lastly, the data were presented as percentages of viable cells in accordance with the methodology outlined in the referenced study, facilitating a comprehensive understanding of the anticancer potential of these compounds.

[2] = biological target: T1, Human serum albumin (HSA) (Homo sapiens, UniProt P02768); assay: HSA fluorescence quenching; format: binding; settings: for Stern–Volmer constant Ksv, HSA: HSA 2 µM, complex 0–30 µM, PBS pH 7.4, room temperature, λex 295 nm
T1 construct: reagents in general came from Sigma-Aldrich, Acros Organics or Merck
T1 sequence (P02768 25-609): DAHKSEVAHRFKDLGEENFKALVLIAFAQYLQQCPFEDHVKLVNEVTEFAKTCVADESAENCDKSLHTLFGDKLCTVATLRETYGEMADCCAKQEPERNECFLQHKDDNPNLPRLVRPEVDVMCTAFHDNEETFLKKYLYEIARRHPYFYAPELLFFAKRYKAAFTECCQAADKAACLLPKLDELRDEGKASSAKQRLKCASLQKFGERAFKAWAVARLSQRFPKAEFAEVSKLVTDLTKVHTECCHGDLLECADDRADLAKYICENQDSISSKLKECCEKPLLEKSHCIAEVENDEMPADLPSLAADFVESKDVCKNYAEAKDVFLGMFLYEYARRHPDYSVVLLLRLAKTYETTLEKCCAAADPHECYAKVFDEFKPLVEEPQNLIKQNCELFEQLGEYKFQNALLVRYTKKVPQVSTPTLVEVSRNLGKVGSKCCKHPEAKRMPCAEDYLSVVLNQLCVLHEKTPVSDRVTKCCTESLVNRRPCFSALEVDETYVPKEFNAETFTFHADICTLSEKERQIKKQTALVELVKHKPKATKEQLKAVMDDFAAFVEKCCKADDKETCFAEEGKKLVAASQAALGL
Text: Human serum albumin (HSA) produces a fluorescence signal when excited at 295 nm due to the tryptophan residues. This characteristic makes fluorescence spectroscopy an effective tool for studying complex interactions involving HSA. If the examined complex interacts with HSA, an increasing concentration of the complex will lead to a decrease in fluorescence, as shown in Figure 4 and Figures S14–S17. […] The Stern–Volmer equation (Equation (S2)) was used to determine the Stern–Volmer constant, Ksv, for the HSA interactions.
The binding affinity of the complexes C1–C5 to HSA has been determined through fluorescence quenching experiments. The measurements were conducted in a 0.01 M PBS with a pH of 7.4 at room temperature. The HSA concentration was kept constant at 2 μM while the concentration of complexes C1–C5 was increased from 0 to 30 μM, resulting in a significant decrease in emissions at 352 nm. Before each measurement, the system was shaken at room temperature. The fluorescence intensity was measured with the wavelength of excitation at 295 nm and recorded in the 300 to 500 nm range. The width of the excitation and emission slits (10 nm) and scan rate were maintained at a constant rate. The Stern–Volmer constants, Ksv, were determined by Equation (2).

[3] = test system: mouse colorectal carcinoma (CT26); assay: MTT cytotoxicity assay, CT26; format: cell-based; settings: 48 h; for IC50: read-out: IC50 ± SEM, CT26
Method: as §1, §2, §3

[4] = test system: CT-DNA; assay: Ethidium bromide/CT-DNA fluorescence quenching (EB displacement); format: binding; settings: EB/CT-DNA 1:1, 5 µM, PBS pH 7.4, room temperature, λex 527 nm, λem 612 nm
Text: Fluorescent spectroscopy allows the determination of the intercalation potential of compounds. Intercalation involves planar aromatic molecules binding between the base pairs of DNA chains, causing them to elongate. Ethidium bromide (EB) is commonly used as a DNA intercalator and produces high levels of fluorescent emissions at 612 nm when intercalating between DNA strands. However, the addition of compounds that can intercalate between DNA strands and suppress the effects of EB will reduce fluorescent emissions. If a complex is able to replace EB, fluorescence reduction will occur, indicating the complex’s ability to bind intercalatively. Figure 3 and Figures S10–S13 show the results of fluorescence titrations in the presence of intercalator EB, where the emission intensity of a constant CT-DNA/EB solution concentration of 5 µM was monitored with increasing complex concentration up to a ratio of 5.
To determine whether the complex could displace EB from the CT-DNA-EB complex, the interactions of the complex with CT-DNA were examined in the presence of EB. The CT-DNA-EB solution was formed by combining EB and CT-DNA solutions with a concentration of 5 μM at a pH of 7.4. The impact of the complex binding to the CT-DNA was measured by analyzing the fluorescence emission spectrum after the addition of the examined complexes solution in increasing concentration, Figure 3.
The binding affinity of the complexes C1–C5 to CT-DNA via intercalation was determined using fluorescence spectroscopy. All measurements were conducted at room temperature in 0.01 M PBS with a pH of 7.4. Fluorescence measurements were performed by adding increasing complex concentrations (0–50 μM) to a CT-DNA and EB solution. Before each measurement, the system was shaken at room temperature. The fluorescence intensity was measured with the wavelength of excitation at 527 nm and the wavelength of emission at 612 nm. The width of the excitation and emission slits (10 nm) and scan rate were maintained at a constant rate. The emission of the solution was recorded in the range of 550 to 750 nm. The Stern–Volmer constants, Ksv, were determined by Equation (2). I0/I = 1 + Ksv[Q](2) [Q] is the concentration of the complex, I0 and I represent emission intensities in the absence and presence of complex, and Ksv is the Stern–Volmer constant obtained from the slope of the plot of I0/I vs. [Q] [25, 26, 27, 28].

[5] = test system: human colorectal carcinoma (SW480); assay: MTT cytotoxicity assay, SW480; format: cell-based; settings: 48 h; for IC50: read-out: IC50 ± SEM, SW480
Method: as §1, §2, §3

[6] = test system: mouse mesenchymal stem cells (mMSC); assay: MTT cytotoxicity assay, mMSC; format: cell-based; settings: 48 h, non-cancerous cells, read-out: IC50 ± SEM, mMSCs
Method: as §1
In the context of developing low-toxicity drugs, it is imperative to evaluate the antiproliferative activity against normal cells. The in vitro toxicity of the tested complexes toward normal mouse mesenchymal stem cells (mMSC) was examined. […] These findings indicate the possibility of enhanced in vivo tolerance for this complex.
as §2, §3

[7] = biological target: T1, Human serum albumin (HSA); design: method as in earlier work; settings: literature value; ref [24]; cited from earlier work
[8] = biological target: B-DNA (PDB ID: 1BNA); design: method as in PMID 36535193, doi:10.1002/aoc.7413; settings: previously tested complexes; ref [11],[12]; read-out: Ki (inhibition constant), docking with DNA; cited from earlier work

Compound | Selectivity Index (IC50 mMSC/IC50), HCT 116 [1] | IC50 [1] [µM] | Stern–Volmer constant Ksv, HSA [2] | Selectivity Index (IC50 mMSC/IC50), CT26 [3] | IC50 [3] [µM] | Stern–Volmer constant Ksv, CT-DNA [4] | Selectivity Index (IC50 mMSC/IC50), SW480 [5] | IC50 [5] [µM] | IC50 [6] [µM] | Ki [8] [µM] | other results
CC(C)(C)c1ccnc(-c2cc(C(C)(C)C)cc(-c3cc(C(C)(C)C)ccn3)n2)c1.N.N.[Cl-].[Cl-].[O-][Cl+3]([O-])([O-])[O-].[O-][Cl+3]([O-])([O-])[O-].[Pt+2].[Zn+2].c1cnccn1 [C2, [{cis-PtCl(NH3)2(μ-pyrazine)ZnCl(terpy^t^Bu)}](ClO4)2] | 0.4 | 26.6 ± 25.9 | 5.8 ± 0.1 10^4 M^–1 | 0.3 | 35.1 ± 39.6 | 2.9 ± 0.1 10^4 M^–1 | 0.4 | 25.7 ± 2.93 | 10.1 ± 0.98 | – | –
N.N.[Cl][Pt][Cl] [cisplatin, reference compound] | 0.5 | 14.7 ± 2.21 | – | 0.8 | 9.03 ± 3.55 | – | 0.7 | 10.1 ± 3.98 | 7.32 ± 2.51 | – | Stern–Volmer constant Ksv, HSA [7]: 0.24 ** 10^4 M^–1
[{cis-PtCl(NH3)2(μ-4,4′-bipyridyl)ZnCl(terpy)}](ClO4)2 [C3b] | – | – | – | – | – | – | – | – | – | 1.01 | –
[{cis-PtCl(NH3)2(μ-4,4′-bipyridyl)ZnCl(terpy-Cl)}](ClO4)2 [C3a] | – | – | – | – | – | – | – | – | – | 52.1 | –
[{cis-PtCl(NH3)2(μ-4,4′-bipyridyl)ZnCl(terpy^t^Bu)}](CIO4)2 [C4] | 0.7 | 89.4 ± 6.7 | 22.7 ± 0.1 10^4 M^–1 | 0.3 | 183 ± 72.4 | 5.2 ± 0.1 10^4 M^–1 | 0.6 | 94.1 ± 9.89 | 60.3 ± 24.7 | – | Ksv value for HSA, order of magnitude ([2]; fluorescence quenching of HSA): ~10^5 M^−1
[{cis-PtCl(NH3)2(μ-pyrazine)ZnCl(terpy)}](ClO4)2 [C1b] | – | – | – | – | – | – | – | – | – | 18.1 | –
[{cis-PtCl(NH3)2(μ-pyrazine)ZnCl(terpy-Cl)}](ClO4)2 [C1a] | – | – | – | – | – | – | – | – | – | 248 | –
[{trans-PtCl(NH3)2(μ-4,4′-bipyridyl)ZnCl(terpy)}](ClO4)2 [C4b] | – | – | – | – | – | – | – | – | – | 1.22 | –
[{trans-PtCl(NH3)2(μ-4,4′-bipyridyl)ZnCl(terpy-Cl)}](ClO4)2 [C4a] | – | – | – | – | – | – | – | – | – | 117 | –
[{trans-PtCl(NH3)2(μ-4,4′-bipyridyl)ZnCl(terpy^t^Bu)}](CIO4)2 [C5] | 0.3 | 152 ± 26.8 | 9.5 ± 0.1 10^4 M^–1 | 0.4 | 108 ± 79.9 | 2.9 ± 0.1 10^4 M^–1 | 0.5 | 75.4 ± 21.2 | 40.2 ± 3.96 | – | –
[{trans-PtCl(NH3)2(μ-pyrazine)ZnCl(terpy)}](ClO4)2 [C2b] | – | – | – | – | – | – | – | – | – | 16.3 | –
[{trans-PtCl(NH3)2(μ-pyrazine)ZnCl(terpy-Cl)}](ClO4)2 [C2a] | – | – | – | – | – | – | – | – | – | 231 | –
[{trans-PtCl(NH3)2(μ-pyrazine)ZnCl(terpy^t^Bu)}](ClO4)2 [C3] | 0.4 | 181 ± 105 | 4.5 ± 0.1 10^4 M^–1 | 0.4 | 210 ± 87 | 2.1 ± 0.1 10^4 M^–1 | 1.1 | 68.1 ± 5.21 | 76.2 ± 12 | – | –
